Literature values as cited in US20200197351A1, “TRIVALENT AND DIVALENT CATIONS AS ADMINISTRABLE AGENTS FOR INCREASED PROCESSIVITY AND IMPROVED FIDELITY OF REVERSE TRANSCRIPTASE IN TELOMERASE AND IN NUCLEIC ACID POLYMERASES” (priority 2018, published 2020).

Conditions: detailed testing in mammals

SMILES: [Sc] [Scandium]
- toxicity: little or no toxicity
